Assay results taken from patent US6083941A, “Inhibition of NMDA receptor activity by pregnenolone sulfate derivatives” (Trustees of Boston University, priority 1998, dated 2000).

How the values were obtained:
Assay type in all cases: in vivo
[1] = test system: NMDA-induced convulsion and mortality in mice; assay: NMDA-induced convulsion test (200 mg/kg NMDA); details: mice, i.v. administration, FIG. 8
Procedure: Male CD-1 mice (Charles River Laboratories, Wilmington, Mass.) weighing 20-25 g were used for the NMDA-induced convulsion test. Mice were injected intraperitoneally with the test compound dissolved in DMSO or with vehicle. NMDA (200 mg/kg, i.p.) was injected either 2 minutes after intravenous injection of test compound or 20 minutes after intraperitoneal injection of test compound.

mice = assay: Behavioral observational assessment after i.p. steroid; details: 25 mg/kg i.p., 30 min. after injection
Procedure: To test for behavioral effects, PS, 5β3αS, 5β3αHS, βE2 (17)HS, or βE2 (3)HS (7 mg/ml in DMSO) was administered to mice i.p. at 25 mg/kg (5 animals per drug group). Behavioral assessments were made 30 min. after injection using a comprehensive observational assessment of motor-affective responses, sensory-motor responses, posture, muscle tone, equilibration, CNS excitation, and autonomic function (Irwin, R. P., et al., NeuroSci. Lett., 141:30-44 (1968)). […] The latency to loss of righting reflex was 2.5±0.5 min., and the latency to regain the righting reflex was 83±11 min. The rapidity of onset argues that 5β3αHS readily crosses the blood brain barrier.

[2] = test system: NMDA-induced seizure and death in mice; assay: NMDA-induced seizure and death (100 mg/kg NMDA challenge); details: steroid 25 mg/kg i.p., DMSO 50%
Procedure: 5β3αHS (25 mg/kg, i.p.) protects mice from NMDA-induced death. None of the steroids tested altered the latency to NMDA-induced seizure. However, 100% of the animals that received 5β3αHS survived the 100 mg/kg NMDA challenge compared to 50% for DMSO, 75% for 5β3αS and E2 (3)HS, and 50% for E2 (17)HS.

SMILES	seizures and mortality induced by NMDA [1]	behavioral assessment (mice)	animals that survived the 100 mg/kg NMDA challenge [2]
C[C@]12CC[C@@H]3c4ccc(OC(=O)CCC(=O)O)cc4CC[C@H]3[C@@H]1CC[C@@H]2O [17βE(3)HS, 17β-estradiol-3-hemisuccinate]	effective in blocking seizures and mortality	very minor behavioral impairment	75%
C[C@]12CC[C@@H]3c4ccc(O)cc4CC[C@H]3[C@@H]1CC[C@@H]2OC(=O)CCC(=O)O [17βE(17)HS, 17β-estradiol-17-hemisuccinate]	effective in blocking seizures and mortality	very minor behavioral impairment	50%
